In PMC9369442, “Synthetic Peucedanocoumarin IV Prevents α-Synuclein Neurotoxicity in an Animal Model of Parkinson’s Disease” (International Journal of Molecular Sciences, 2022):

Legend:
[1] = test system: SH-SY5Y cells with Tet-Off conditional expression of β23; assay: Trypan blue exclusion cell viability assay, Tet-Off β23 expression; type: cell-based; conditions: for effect on β23-induced cytotoxicity: 1 μM, 24 h; for EC50: Homo sapiens, Tet-Off β23, trypan blue exclusion, read-out: median effective concentration, cytoprotection against β23 toxicity; for cytotoxicity of the compound at high concentrations: up to 4 µM
Method: (§1) Figure 1 Peucedanocoumarin IV (PCiv) inhibits β23 aggregations and cytotoxicity in SH-SY5Y cells. (A) Scheme showing the detailed experimental steps in the organic synthesis of racemic PCiv and racemic PCiii (rac-PCiii, and rac-PCiv). Both PCiii and PCiv used in this study are racemic forms. (B) Trypan blue exclusion cell viability assessment in SH-SY5Y cells with Tet-Off-induced β23 expressions. β23 was expressed for 24 h using the Tet-off system. Further expression of β23 was halted by doxycycline (Dox) treatment with simultaneous treatment of the PCiii, PCiv, or their synthetic intermediate, trans-khellatone (t-khellatone, 1 μM 24 h). Cell viability was assessed 24 h after doxycycline treatment (n = 5 per group). (C) Synthetic PCiv’s protective effect on Tet-Off-expressed β23 toxicity in SH-SY5Y cells compared with peucedanocoumarin III (PCiii) determined by trypan blue exclusion assay. (D) The degradation of β23 monitored by Western blot at 37 h after doxycycline (200 ng/mL) treatment. The representative Western blot image of HA (β23) in SH-SY5Y cells treated with synthetic PCiii, synthetic PCiv (1 μM, 37 h), or DMSO as a vehicle. (E) Quantification of HA (β23) expression in SH-SY5Y cells from the indicated experimental groups in panel D (n = 3 experiments per group). (F) Representative immunofluorescence of steady state HA (β23) expression in SH-SY5Y cells expressing Tet-Off regulatable reporter mCherry and HA-tagged β23. HA-β23 was expressed for 24 h using the Tet-off system. Further expression of β23 was halted by Dox treatment in the presence of PCiii or PCiv (1 μM, 37 h). (G) Quantification of HA (β23) immunofluorescence signal in mCherry positive SH-SY5Y cells in each experimental group (n = 32 cells from three separate experiments per group). The data are expressed as means ± SEMs. * p < 0.05, ** p < 0.01, *** p < 0.001, and **** p < 0.0001, ANOVA test followed by Tukey’s post hoc analysis. Two-way ANOVA was used in panel C.
Human neuroblastoma SH-SY5Y cells (ATCC, Manassas, VA, USA) were grown in complete media containing DMEMs, 10% fetal bovine serum (vol/vol), and antibiotics (penicillin-streptomycin 100 U/mL, Thermo Fisher Scientific, Waltham, MA, USA). The atmospheric condition used to preserve the cells consisted of 5% CO2/95% air at 37 °C and maintained a humidified environment. X-tremeGENE HP transfection reagents (Roche, Basel, Switzerland) were used for transient transfection of DNA constructs (pCMV-tTA, TetP-β23, and pTet-dual2 [5]) following the manufacturer’s instructions.
SH-SY5Y cells were plated in 12-well plates at a density of 0.2 × 10^6 cells per well. Following transient transfection with the indicated constructs and subsequent treatment protocol, the cells were harvested by trypsinization, thereby yielding single-cell suspensions. The cells were washed twice with phosphate-buffered saline (PBS) and resuspended in serum-free DMEM. The resuspended cells were mixed with an equal volume of 0.4% trypan blue (w/v) and incubated for 2 min at room temperature. Live and dead cells were counted using a Countess II Automated Cell Counter (Life Technologies, Carlsbad, CA, USA) for assessing cell viability.

[2] = test system: β23 (HA-tagged) in SH-SY5Y cells; assay: β23 clearance by Western blot and immunofluorescence of HA-tagged β23; type: cell-based, Human; conditions: 1 μM; for HA-β23 immunofluorescence signal in mCherry-positive transfected cells: 37 h
Method: as §1, with “HA-β23 was expressed for 24 h using the Tet-off system. Further expression of β23 was halted by Dox treatment in the presence of PCiii or PCiv (1 μM, 37 h).” left out, “Two-way ANOVA was used in panel C.” left out
Lysis buffer was added to the SH-SY5Y cells washed with ice-cold PBS (1% Nonidet P40 in PBS, pH 7.4) that was supplemented with protease/phosphatase inhibitors. […] The supernatants were quantified through BCA protein assessment. […] Next, band quantification was performed using ImageJ software. […]

| SMILES | effect on β23-induced cytotoxicity [1] | EC50 [1] [nM] | cytotoxicity of the compound at high concentrations [1] | HA-β23 immunofluorescence signal in mCherry-positive transfected cells [2] | steady-state β23 expression levels (Western blot) ([2]; 37 h after doxycycline) |
| --- | --- | --- | --- | --- | --- |
| C/C=C(\C)C(=O)O[C@H]1[C@H](OC(C)=O)c2c(ccc3ccc(=O)oc23)OC1(C)C (relative stereo) [PCiv, trans-4′-acetyl-3′-tigloylkhellactone] | nearly equivalent cytoprotective biological function | 204 | no obvious cytotoxicity | markedly reduced | markedly reduced |
| C/C=C(\C)C(=O)O[C@@H]1c2c(ccc3ccc(=O)oc23)OC(C)(C)[C@H]1OC(C)=O (relative stereo) [PCiii, peucedanocoumarin III] | potently prevented | 318 | no obvious cytotoxicity | markedly reduced | – |
